The values that follow come from patent US20250171419A1, “NOVEL NICOTINAMIDE PHOSPHORIBOSYLTRANSFERASE INHIBITORS AND USES THEREOF” (Heidelberg Pharma Research GmbH, priority 2023, published 2025).

Where a name gives a salt, the structure may show the parent alone.

The nature of data set [1]: Acid hydration stability (TFA, 37° C). It is filed as physicochemical. To be noted: for tendency of cyanoguanidine group to hydration and degradation: pH values below 2, formation of guanylurea intermediates. The source says: Since the lysosomal pH is acidic and contains numerous hydrolases, NAMPT inhibitors bearing cyanoguanidines may therefore be degraded in the lysosome. […] The product was confirmed by mass spectrometry and NMR analysis. The inhibitor C42a was designed as an alternative to cyanoguanidine compounds containing urea as non-hydratable group.

Data set [2] is classed as in vitro ADME, human. As for the experimental part: The test compound was incubated at a concentration of 17.7 μM in a mixture of human liver lysosomal extract (tebu-bio, Seikisui Xenotech, Ref: H0610.L) and 1× catabolism buffer (tebu-bio, Seikisui Xenotech, Ref: K5200) for […] at 37° C. Samples were taken at 0, 2, 4, 24, 48, 72, 120, and 168 hours. Control samples without lysosomal extract were also set up under the same conditions as the test sample. All measurements and samples were taken in duplicate.
To measure the reaction, the compound was quenched by adding 380 μL of internal standard buffer (30 ng/mL of internal standard in ACN) to 20 μL of the sample. An amanitin-stable isotope-labelled analogue was used as the internal standard.
22 μL of the quenched sample was analysed using UPLC-MS-MS QTrap 5500 (Column: Waters ACQUITY UPLC BEH Amide, […], 2.1×100 mm, product code: 186004801). This assay was related to compound 113. Compound 113 was expected to be the main degradation compound after lysosomal enzymatic digestion and was used as a reference for the detection of catabolites after digestion in the HPLC-MS analysis.
The ion fragments detection method was multiple reaction monitoring (MRM). In this method, the mass is measured by a tandem mass spectrometer where the initial molecular ion is selected as initial mass. […]

For data set [3], the system named is murine renal cell carcinoma model RENCA. To be noted: cited from earlier work.
The test system of data set [4] is human breast and lung cancer cell line-derived in vivo models. To be noted: cited from earlier work.
The subject of the next data set is solid tumors. To be noted: cited from earlier work.
In another data set the test system is L540 CD30+ cell line. Kind of data set: Cytotoxicity in L540 CD30+ cell line, CellTiter-Glo 2.0 readout after 96 h. It is filed as cell-based. To be noted: FIG. 10 C. Background: ATP-based viability assays read luminescence as a measure of living cells.

Procedure for L540 CD30+ cell line: L540 CD30^+ cell lines were used for the study. 2×10^3 Cells were added to each well of a 96-well plate, but for the blank wells. Test compounds and controls were added to their corresponding lanes in a 7-step 1:5 dilution series starting with the concentration of 1×10^−5 M for non-conjugated inhibitors and 1×10^−7 M for ADCs and free monoclonal antibody. The dilution scheme was prepared in triplicates for each sample. Cells were incubated at 37° C. at 5% CO2 for 96 h in an evaporation chamber. Readout was performed using CellTiter-Glo 2.0 assay, according to the kit instructions (Promega; Cat #G9242).
2×10^3 Cells were added to each well of a 96-well plate, but for the blank wells. […] Cells were incubated at 37° C. at 5% CO2 for 96 h in an evaporation chamber. Readout was performed using CellTiter-Glo 2.0 assay, according to the kit instructions (Promega; Cat #G9242).
2×10^3 Cells were added to each well of a 96-well plate, but for the blank wells. […] Cells were incubated at 37° C. at 5% CO2 for 96 h in an evaporation chamber. Readout was performed using CellTiter-Glo® 2.0 assay, according to kit instructions (Promega; Cat #G9242).

As to `N#C/N=C(\NCCCCC1CCN(C(=O)c2cccc(N)c2)CC1)Nc1cccnc1` [compound 36, (E)-1-(4-(1-(3-aminobenzoyl)piperidin-4-yl)butyl)-2-cyano-3-(pyridin-3-yl)guanidine], in data set [1] (acid pH), the “hydration of the cyanoguanidine moiety under acid pH” value is “undergoes hydration of the cyanoguanidine moiety to guanylurea”. Besides, the “acid hydration reaction involving TFA, pH above 2” value in data set [1] (pH values above 2, after 48 hours at 37° C) was “the reaction did not occur”. In addition, in data set [1] (pH values below 2, within 24 hours at 37° C), the “acid hydration reaction involving TFA, pH below 2” value is on record as “guanylurea 113 was obtained in excellent yield”. Further, in data set [1], the “tendency of cyanoguanidine group to hydration and degradation” value was “tend towards hydration and degradation”. Besides, in data set [2], the “degradation in the absence of lysosomal enzymes” value is on record as “no degradation is observed” and the “degradation versus generation of the hydrated product 113” value is “inversely correlates”.

Take `O=C(/C=C/c1cccnc1)NCCCCC1CCN(C(=O)c2ccccc2)CC1` [Daporinad, (E)-N-[4-(1-benzoylpiperidin-4-yl)butyl]-3-(pyrldine-3-yl)-acrylamide]: the in vivo efficacy entry in data set [3] was “In vivo efficacy of daporinad was shown”.

With `N#CNC(=Nc1ccncc1)NCCCCCCOc1ccc(Cl)cc1` [CHS-828, N-[6-(4-chlorophenoxy)hexyl]-N′-cyano-N″-4-pyridinyl-guanidine], the “cytotoxic effects in vitro and in vivo” value in data set [4] is on record as “highly cytotoxic effects”. For the same compound, the “observed responses in the clinical trials” value with solid tumors is “stable disease”.

For the compound `Nc1cccc(C(=O)N2CCC(O)(CCCCNC(=O)N3Cc4ccccc4C3)CC2)c1` [C42a, N-(4-(1-(3-aminobenzoyl)-4-hydroxypiperidin-4-yl)butyl)isoindoline-2-carboxamide TFA salt], in data set [1] (identical conditions as those that triggered the hydration of 36), the “time stable under the conditions that triggered the hydration of 36” value is “more than 2 weeks”. Besides, in data set [1] (pH values below 2 at 37° C for more than 2 weeks), the “hydration at pH values below 2” value is given as “no hydration”.

As to `N#C/N=C(\NCCCCC1(O)CCN(C(=O)c2cccc(N)c2)CC1)Nc1cccnc1` [C22a, (E)-1-(4-(1-(3-aminobenzoyl)-4-hydroxypiperidin-4-yl)butyl)-2-cyano-3-(pyridin-3-yl)guanidine], the “tendency of cyanoguanidine group to hydration and degradation” value in data set [1] was “tend towards hydration and degradation”.

Take `NC(=O)/N=C(\NCCCCC1CCN(C(=O)c2cccc(N)c2)CC1)Nc1cccnc1` [compound 113, (E)-1-(((4-(1-(3-aminobenzoyl)piperidin-4-yl)butyl)amino)(pyridin-3-ylamino)methylene)urea]: in the data set with L540 CD30+ cell line, the “toxicity in L540 cells compared to inhibitor 36” value is reported as “significantly reduced toxicity”.
